From patent publication US12509425B2, “Tablet comprising modoflaner as an active component” (VIRBAC, priority 2020, dated 2025) come the findings set out here.

This data set can be described thus: Bioavailability study: Modoflaner plasma concentration in dogs after oral gel capsule. Conditions: oral gelatin capsule, same dosage per kg body weight, 5 dogs per group. In kind it is in vivo. The method, then: The highest plasma concentration measured was set to 1 and the other plasma concentrations are given relatively to this highest value.
Ten dogs, divided into two groups comprising five animals each, were orally treated with a gel capsule containing either modification I or IV of Modoflaner at the same dosage of Modoflaner per kg body weight.
For kinetic evaluation, blood was sampled at predetermined time points (0, 0.5, 1, 2, 4, 6, 8, 24, 32, 48, 72 and 144 hours) before and after treatment (n=12 per dog). All samples were deep-frozen immediately after plasma preparation and stored at −18° C. or below until shipment to the analytical laboratory.
The samples were analyzed with regard to their concentration in Modoflaner.
The plasma samples were deproteinized by mixing 100 μL plasma with 900 μL of a mixture of 100 mL of 0.40 g ammonium acetate in 1 L water plus 100 μL formic acid and 600 mL acetonitrile, treatment for 30 s on a vortex mixer and subsequent centrifugation. The quantitative determination was performed by HPLC (Column ZORBAX Eclipse Plus C18 Rapid Resolution HD, 2.1×50 mm, 1.8 μm Agilent Technologies; Isocratic pump: Mobile phase: Solution of methanol/water (7+3, v/v)+10 mMol ammonium formate+0.12 mL/L formic acid Flow rate: 0.5 mL/min; Binary pump: Mobile phase A: water+10 mMol ammonium formate+0.12 mL/L formic acid Mobile phase B: methanol+10 mMol ammonium formate+0.12 mL/L formic acid Flow rate: 0.6 mL/min) with detection by tandem mass spectrometry using a Sciex API 5500 mass spectrometer (negative ionisation mode using the transition from Modoflaner precursor ion at m/z 714 to its product ion at m/z 694). The lower limit of quantitation was 1 μg/L.
For calculation of the mean values, results below the limit of quantitation were set to half the limit of quantitation.

SMILES strings stand for the structures.

For orientation: Tmax means the time from dosing to the highest level. Regarding `O=C(Nc1cccc(C(=O)Nc2c(I)cc(C(F)(C(F)(F)F)C(F)(F)F)cc2C(F)(F)F)c1F)c1ccc(F)nc1` [6-fluoro-N-(3-(2-iodo-4-(perfluoropropan-2-yl)-6-(trifluoromethyl)phenylcarbamoyl)-2-fluoro-phenyl)-nicotinamide], the “Cmax relative to Cmax of crystalline modification I” value is given as “about 3 times”. In addition, the Tmax (listed as modification IV) was determined as 4 h.

Take `O=C(Nc1cccc(C(=O)Nc2c(I)cc(C(F)(C(F)(F)F)C(F)(F)F)cc2C(F)(F)F)c1F)c1ccc(F)nc1` [crystalline modification I of Modoflaner, 6-fluoro-N-(3-(2-iodo-4-(perfluoropropan-2-yl)-6-(trifluoromethyl)phenylcarbamoyl)-2-fluoro-phenyl)-nicotinamide]: the Tmax is recorded as 32 h.
